From ChEMBL document CHEMBL1128336, “Synthetic routes to 4-amino-3-carboxy-beta-carboline derivatives: incidental formation of novel furo[3,4-c]-beta-carbolin-2-ones displaying high affinities for the benzodiazepine receptor” (J Med Chem, 1995)

Biological target: GABA-A receptor; anion channel
Assay: In vitro displacement of [3H]flunitrazepam from GABA-A central benzodiazepine receptor of rat cerebral cortex membranes
Assay type: cell membranes, Membrane

Row | Compound | IC50
1 | COC1OC(=O)c2[nH]cc3nc4ccccc4c-3c21 (stereo not drawn) | 0.012 µM
2 | CCOC(=O)CN1C(=O)c2[nH]cc3nc4ccccc4c-3c2C1O (stereo not drawn) | 0.07 µM
3 | O=C1OC(CO)c2c1[nH]cc1nc3ccccc3c2-1 (stereo not drawn) | 0.0002 µM
4 | CC1OC(=O)c2[nH]cc3nc4ccccc4c-3c21 (stereo not drawn) | 0.02 µM
5 | CCOC1OC(=O)c2[nH]cc3nc4ccccc4c-3c21 (stereo not drawn) | 0.02 µM
6 | O=C1OC(O)c2c1[nH]cc1nc3ccccc3c2-1 (stereo not drawn) | 0.047 µM
7 | O=C1OC(=O)c2c1[nH]cc1nc3ccccc3c2-1 | 0.15 µM
8 | COC(=O)c1cc2c(cn1)[nH]c1ccccc12 [BETA-CCM] | 0.002 µM
